Converted amounts (≈) assume the structure as drawn. Where a SMILES comes first, the peptide text is derived from it. Bridges are numbered along the chain shown (N, C = ends).
Legend:
[1] = test system: Fusarium culmorum; conditions: 48 h
[2] = test system: Colletotrichum utrechtense; conditions: 72 h
[3] = test system: Dickeya dadantii strain 3937; conditions: 24 h
[4] = test system: Mycosphaerella fragariae; conditions: 48 h
[5] = test system: F. oxysporum; experiment: Cyclotide stability assay in F. oxysporum culture; type: in vitro ADME, Fusarium oxysporum; conditions: 5 days old F. oxysporum culture (3000 spores in 150 μl 24 g l^-1 PDB), 5 μg cyO2 per well, 3 days, HPLC-UV 280 nm AUC relative to time 0, mean of triplicates, unaltered molecular mass
Procedure: Freshly harvested F. oxysporum spores were grown in microplates (3000 spores in 150 μl of 24 g l^-1 PDB per well) on a rotary shaker. After 5 days of incubation, 5 μg of cyO2 in 10 μl of Milli-Q water was added to each well. Samples of the medium and mycelia were collected in Eppendorf tubes immediately after adding cyO2 (time 0) and after incubation with the cyclotide for 2, 4, 8h, 1, 2, and 3 days. The samples were freeze-dried, crushed with a pestle, and extracted with 200 μl of buffer B for 4 h on the rotary shaker. After centrifugation, the supernatant was collected, freeze-dried and reconstituted in buffer A for analysis by HPLC-UV-ESI-MS. HPLC was performed over 18 min using an LC-20 UFLC system (Shimadzu, Japan) with photodiode array detector (PDA) and a Waters (Milford, MA) XTerra MS C18 HPLC column (2.1 × 50 mm, with a particle size of 2.5 μm) at a flow rate of 0.5 ml min^-1 with a linear gradient from 5% to 60% ACN and 0.1% formic acid in water. ESI-MS detection was used to identify the cyO2 peak and to detect modifications of the peptide that may have been introduced by the fungus. For each incubation time, the peaks in the 280 nm UV chromatogram corresponding to cyO2 were integrated, and the mean area under the curve (AUC) for each incubation time was computed from independent triplicates. […]

[6] = test system: Pectobacterium atrosepticum SCRI 1043; conditions: 24 h
[7] = test system: Fusarium graminearum; conditions: 48 h
[8] = test system: Alternaria alternata; conditions: 72 h
[9] = Liposome leakage assay, fungal membrane model; conditions: read-out: EC50 of liposome permeabilization (carboxyfluorescein leakage); S. cerevisiae polar lipid extract:ergosterol 7:3 liposomes, Tris buffer, 45 min, % of Triton X-100 leakage, triplicate
[10] = test system: Fusarium oxysporum; conditions: 0 h
[11] = test system: Botrytis cinerea; conditions: 48 h
[12] = test system: Pseudomonas syringae pv. syringae strain Pss-762; experiment: Antibacterial MIC assay (CLSI), P. syringae pv. syringae; type: cell-based; conditions: M9 minimal medium with 0.4% glucose, 24 h, 28°C, 1.5 × 10^6 CFU ml^-1, OD600 < 0.1, triplicate, repeated three times
Procedure: Cyclotides (cycloviolacin O2, O3, and O19) at concentrations of 0.78–100 μM were tested for activity against three bacterial plant pathogens: Pseudomonas syringae pv. syringae strain Pss-762 ([Taraszkiewicz et al., 2012]), Dickeya dadantii strain 3937 ([Glasner et al., 2011]) and Pectobacterium atrosepticum SCRI 1043 ([Bell et al., 2004]). Experiments were conducted according to the CLSI guidelines ([Clinical and Laboratory Standards Institute [CLSI], 2012]) using standard CA-MHB medium (BBL^TM Mueller-Hinton II Broth cation-adjusted, Becton Dickinson) or M9 minimal medium (per L: 6 g Na2HPO4, 3g KH2PO4, 0.5 g NaCl, 1 g NH4Cl) supplemented with glucose to a final concentration of 0.4%. Bacterial colonies from 24 h old cultures on TSA (trypticase soy agar, BioMerieux) plates were used to inoculate CA-MHB or M9 minimal medium and set up liquid cultures. Next, late log phase bacterial cultures were diluted to 0.5 McFarland standard, as determined by densimetry in the relevant medium (DensiMeter II, EMO, Brno). […] The minimal inhibitory concentration (MIC) of each cyclotide was determined as the lowest concentration required to inhibit bacterial growth, i.e., to reduce the culture’s OD600 to less than 0.1. OD600 values were measured with a microplate reader (EnVision^TM Multilabel Plate Reader, Perkin Elmer). […]

[13] = test system: seven fungal plant pathogens; conditions: 0 h

Structure (SMILES) | MIC [1] [µM] | MIC [2] [µM] | MIC [3] [µM] | MIC [4] [µM] | initially added amount recovered after co-culture with F. oxysporum [5] [%] | MIC [6] [µM] | MIC [7] [µM] | MIC [8] [µM] | EC50 [9] [nM] | MIC at the inoculum used for immunogold labeling [10] [µM] | MIC [11] [µM] | MIC [12] [µM] | MICs, range or bound over the tested fungi [13] [µM]
CC[C@H](C)[C@@H]1NC(=O)[C@H](C)NC(=O)[C@H](CO)NC(=O)[C@H](CO)NC(=O)[C@H]([C@@H](C)CC)NC(=O)[C@@H]2CSSC[C@@H]3NC(=O)[C@H](C(C)C)NC(=O)[C@H](CCCCN)NC(=O)[C@H](CO)NC(=O)[C@H](CCCCN)NC(=O)[C@@H]4CSSC[C@H](NC(=O)[C@H](CO)NC(=O)[C@H](CCC(=O)O)NC(=O)CNC(=O)[C@H](CSSC[C@H](NC(=O)CNC1=O)C(=O)N[C@@H](CO)C(=O)N4)NC(=O)[C@@H]1CCCN1C(=O)[C@H]([C@@H](C)CC)NC(=O)CNC(=O)[C@H](CC(N)=O)NC(=O)[C@H](CCCNC(=N)N)NC(=O)[C@H](Cc1ccc(O)cc1)NC3=O)C(=O)N[C@@H](C(C)C)C(=O)N[C@@H](Cc1c[nH]c3ccccc13)C(=O)N[C@@H]([C@@H](C)CC)C(=O)N1CCC[C@H]1C(=O)N2 [cyO2, cycloviolacin O2] (cyclo(AIGCSCKSKVCYRNGIPCGESCVWIPCISS); disulfide 4-18, 6-22, 11-27 (inferred); ring closure inferred) | 1.5 (≈ 4.71 µg/mL) | 6.25 (≈ 19.6 µg/mL) | 75 (≈ 236 µg/mL) | >25 | ~100 | 100 (≈ 314 µg/mL) | 6.25 (≈ 19.6 µg/mL) | 1.5 (≈ 4.71 µg/mL) | 72 | 80 | – | – | –
CC(C)C[C@@H]1NC(=O)CNC(=O)[C@H](CC(N)=O)NC(=O)[C@H](CCCNC(=N)N)NC(=O)[C@H]([C@@H](C)O)NC(=O)[C@@H]2CSSC[C@@H]3NC(=O)[C@H]([C@@H](C)O)NC(=O)CNC(=O)CNC(=O)[C@H](C(C)C)NC(=O)[C@@H]4CSSC[C@H](NC(=O)[C@H](CO)NC(=O)[C@H](CSSC[C@H](NC(=O)[C@H](C(C)C)NC(=O)[C@@H]5CCCN5C1=O)C(=O)NCC(=O)N[C@@H](CCC(=O)O)C(=O)N[C@@H]([C@@H](C)O)C(=O)N4)NC(=O)CNC(=O)[C@@H]1CCCN1C(=O)[C@H]([C@@H](C)O)NC(=O)[C@H](CC(N)=O)NC3=O)C(=O)N[C@@H](CO)C(=O)N[C@@H](Cc1c[nH]c3ccccc13)C(=O)N1CCC[C@H]1C(=O)N[C@@H](C(C)C)C(=O)N2 [varv A] | 40 (≈ 115 µg/mL) | – | – | >80 | – | – | 40 (≈ 115 µg/mL) | – | – | – | 80 (≈ 230 µg/mL) | – | –
CC[C@H](C)[C@@H]1NC(=O)[C@H](C)NC(=O)[C@H](C)NC(=O)[C@H](CO)NC(=O)[C@H]([C@@H](C)CC)NC(=O)[C@@H]2CSSC[C@@H]3NC(=O)[C@H](C(C)C)NC(=O)[C@H](CCCCN)NC(=O)[C@H](CO)NC(=O)[C@H](CCCCN)NC(=O)[C@@H]4CSSC[C@H](NC(=O)[C@H](CO)NC(=O)[C@H](CCC(=O)O)NC(=O)CNC(=O)[C@H](CSSC[C@H](NC(=O)CNC1=O)C(=O)N[C@@H](CO)C(=O)N4)NC(=O)[C@@H]1CCCN1C(=O)[C@H]([C@@H](C)CC)NC(=O)CNC(=O)[C@H](CC(N)=O)NC(=O)[C@H](CCCNC(=N)N)NC(=O)[C@H](Cc1ccc(O)cc1)NC3=O)C(=O)N[C@@H](C(C)C)C(=O)N[C@@H](Cc1c[nH]c3ccccc13)C(=O)N[C@@H]([C@@H](C)CC)C(=O)N1CCC[C@H]1C(=O)N2 [cyO13] (cyclo(AAIGCSCKSKVCYRNGIPCGESCVWIPCIS); disulfide 5-19, 7-23, 12-28) | – | 6.25 (≈ 19.5 µg/mL) | – | – | – | – | – | 3 (≈ 9.37 µg/mL) | 130 | – | 3 (≈ 9.37 µg/mL) | – | –
CC(C)C[C@@H]1NC(=O)CNC(=O)[C@H](CC(N)=O)NC(=O)[C@H](CCCNC(=N)N)NC(=O)[C@H]([C@@H](C)O)NC(=O)[C@@H]2CSSC[C@@H]3NC(=O)[C@H]([C@@H](C)O)NC(=O)CNC(=O)CNC(=O)[C@H](C(C)C)NC(=O)[C@@H]4CSSC[C@H](NC(=O)[C@H]([C@@H](C)O)NC(=O)[C@H](CSSC[C@H](NC(=O)[C@H](C(C)C)NC(=O)[C@@H]5CCCN5C1=O)C(=O)NCC(=O)N[C@@H](CCC(=O)O)C(=O)N[C@@H]([C@@H](C)O)C(=O)N4)NC(=O)CNC(=O)[C@@H]1CCCN1C(=O)[C@H]([C@@H](C)O)NC(=O)[C@H](CC(N)=O)NC3=O)C(=O)N[C@@H](CO)C(=O)N[C@@H](Cc1c[nH]c3ccccc13)C(=O)N1CCC[C@H]1C(=O)N[C@@H](C(C)C)C(=O)N2 [kB1, kalata B1] | >80 | – | – | >80 | – | – | >80 | – | – | – | 80 (≈ 231 µg/mL) | – | –
CC[C@H](C)[C@@H]1NC(=O)[C@@H]2CSSC[C@@H]3NC(=O)[C@H](C(C)C)NC(=O)[C@H](CCCCN)NC(=O)[C@H](CO)NC(=O)[C@H](CCCCN)NC(=O)[C@@H]4CSSC[C@H](NC(=O)[C@H](CO)NC(=O)[C@H](CCC(=O)O)NC(=O)CNC(=O)[C@H](CSSC[C@H](NC(=O)CNC(=O)[C@H](C(C)C)NC(=O)[C@H](C(C)C)NC(=O)[C@H](CO)NC(=O)[C@H](CO)NC1=O)C(=O)N[C@@H](CO)C(=O)N4)NC(=O)[C@@H]1CCCN1C(=O)[C@H](CC(C)C)NC(=O)[C@H]([C@@H](C)O)NC(=O)CNC(=O)[C@H](CC(=O)O)NC(=O)[C@H](CCCCN)NC(=O)[C@H](Cc1ccc(O)cc1)NC3=O)C(=O)N[C@@H](C(C)C)C(=O)N[C@@H](Cc1c[nH]c3ccccc13)C(=O)N[C@@H]([C@@H](C)CC)C(=O)N1CCC[C@H]1C(=O)N2 [cyO19] (cyclo(CGESCVWIPCISSVVGCSCKSKVCYKDGTLP); disulfide 1-17, 5-19, 10-24) | 1.5 (≈ 4.84 µg/mL) | 6.25 (≈ 20.2 µg/mL) | 75 (≈ 242 µg/mL) | >25 | – | 100 (≈ 323 µg/mL) | 12.5 (≈ 40.4 µg/mL) | 1.5 (≈ 4.84 µg/mL) | 80 | – | 1.5 (≈ 4.84 µg/mL) | 25 (≈ 80.7 µg/mL) | –
CC[C@H](C)[C@@H]1NC(=O)[C@H](C)NC(=O)[C@H](CO)NC(=O)[C@H]([C@@H](C)O)NC(=O)[C@H](CC(C)C)NC(=O)[C@@H]2CSSC[C@@H]3NC(=O)[C@H](C(C)C)NC(=O)[C@H](CCCCN)NC(=O)[C@H](CO)NC(=O)[C@H](CCCCN)NC(=O)[C@@H]4CSSC[C@H](NC(=O)[C@H](CO)NC(=O)[C@H](CCC(=O)O)NC(=O)CNC(=O)[C@H](CSSC[C@H](NC(=O)CNC1=O)C(=O)N[C@@H](CO)C(=O)N4)NC(=O)[C@@H]1CCCN1C(=O)[C@H]([C@@H](C)CC)NC(=O)CNC(=O)[C@H](CC(N)=O)NC(=O)[C@H](CCCNC(=N)N)NC(=O)[C@H](Cc1ccc(O)cc1)NC3=O)C(=O)N[C@@H](C(C)C)C(=O)N[C@@H](Cc1c[nH]c3ccccc13)C(=O)N[C@@H]([C@@H](C)CC)C(=O)N1CCC[C@H]1C(=O)N2 [cyO3] (cyclo(AIGCSCKSKVCYRNGIPCGESCVWIPCLTS); disulfide 4-18, 6-22, 11-27) | – | 6.25 (≈ 19.7 µg/mL) | 75 (≈ 237 µg/mL) | – | – | 100 (≈ 315 µg/mL) | – | 0.8 (≈ 2.52 µg/mL) | 67 | – | 1.5 (≈ 4.73 µg/mL) | 25 (≈ 78.9 µg/mL) | 0.8 to 12.5

Reference: paper PMC6141879, “How Does the Sweet Violet (Viola odorata L.) Fight Pathogens and Pests – Cyclotides as a Comprehensive Plant Host Defense System” (Frontiers in Plant Science, 2018)
